Experimental data taken from patent publication US4621083A, “PAF-antagonistic diazepines” (Boehringer Ingelheim KG, priority 1984, dated 1986).

What follows are molecules tested on PAF-induced aggregation of human thrombocytes (assay: Inhibition of PAF-induced blood platelet aggregation in vitro). Conditions: Homo sapiens, read-out: PAF-Antag. IC50.
Format: cell-based
Method: 1. Inhibition of blood platelet aggregation in vitro
The PAF-induced aggregation of human thrombocytes in vitro is used to determine PAF-antagonistic activity. To obtain thrombocyte-rich plasma (TRP), blood is taken from an uncongested vein using a plastic syringe containing 3.8% sodium citrate solution. The ratio of sodium citrate solution to blood is 1:9. After careful mixing the citrate blood is centrifuged for 20 minutes at 150 g (1200 rpm). The thrombocyte aggregation is measured using the method devised by Born and Cross (G. V. R. Born and M. J. Cross, J. Physiol. 168, 178 (1963)), by adding an aggregation initiator (PAF) to the TRP with constant stirring.
The test substance is added 2 to 3 minutes before aggregation is initiated in a volume of 10 ul. Either distilled water, ethanol and/or dimethylsulphoxide (each in suitable concentrations) can be used as solvent.
Control mixtures contain corresponding volumes of these solvents. After the initial absorption has been recorded (2 to 3 minutes) aggregation is induced with PAF (5×10^-8 M).
The maximum of the first aggregation wave is used to assess the effects of the substance. The PAF-induced maximum absorption rate (=maximum aggregation×100%) is tested at the same time in a parallel mixture (=control mixture in one of the channels of the two-channel aggregometer) as each test mixture (second channel) and is used as a 100% value.
The aggregation value attained under the effect of the test substance is given as a percentage of the control value, i.e. less than 100% in the case of an inhibition of aggregation and over 100% in the case of an increase.
Each test substance is investigated at concentrations of from 10^-3 to 10^-8 M with a random sampling of n=4 with regard to an inhibitory effect on the PAF-induced thrombocyte aggregation. Then a concentration-activity curve is drawn up using 3 concentrations and the IC50 is determined (concentration giving a 50% inhibition of aggregation).

Compound	IC50
Cc1nnc2n1-c1ccccc1C(c1ccccc1)=NC2	16 µM
Cc1nnc2n1-c1ccccc1C(c1ccccc1Cl)=NC2 [compound 2]	8.6 µM
Cc1nnc2n1-c1ccc(Cl)cc1C(c1ccccc1)=NC2 [compound 3, Alprazolam, reference compound]	14 µM
Cc1nnc2n1-c1ccc(Cl)cc1C(c1ccccc1Cl)=NC2 [compound 4, Triazolam, reference compound]	9 µM
Cc1nnc2n1-c1cc(Cl)ccc1C(c1ccccc1Cl)=NC2 [compound 5]	300 µM
Cc1ccc2c(c1)C(c1ccccc1Cl)=NCc1nnc(C)n1-2 [compound 6]	9.1 µM
Cc1nnc2n1-c1sccc1C(c1ccccc1Cl)=NC2 [compound 7]	22 µM
CCc1cc2c(s1)-n1c(C)nnc1CN=C2c1ccccc1Cl [compound 8]	< 5 µM
Cc1nnc2n1-c1sc(Cl)cc1C(c1ccccc1Cl)=NC2 [compound 9]	< 2 µM
Cc1nnc2n1-c1sc(Br)cc1C(c1ccccc1Cl)=NC2 [compound 10]	0.5 µM
CSCc1cc2c(s1)-n1c(C)nnc1CN=C2c1ccccc1Cl [compound 11]	< 5 µM
Cc1nnc2n1-c1sc([N+](=O)[O-])cc1C(c1ccccc1Cl)=NC2 [compound 12]	2.6 µM
Cc1csc2c1-n1c(C)nnc1CN=C2c1ccccc1 [compound 22]	> 100 µM
Cc1nnc2n1-c1ccsc1C(c1ccccc1)=NC2 [compound 23]	19.8 µM
Cc1nnc2n1-c1ccsc1C(c1ccccc1Cl)=NC2 [compound 24]	7.6 µM
Cc1nc2c(s1)C(c1ccccc1)=NCc1nncn1-2 [compound 26]	700 µM
CCn1nc(C)c2c1-n1c(C)nnc1CN=C2c1ccccc1Cl [compound 27]	270 µM
Cc1nnc2n1-c1c(nnn1C)C(c1ccccc1Cl)=NC2 [compound 29]	950 µM
Cc1cnc2n1-c1sc(Br)cc1C(c1ccccc1Cl)=NC2 [compound 30]	< 10 µM
Cc1ncc2n1-c1ccc(Cl)cc1C(c1ccccc1F)=NC2 [compound 31]	690 µM
COc1ccc2c(c1)C(c1ccccc1Cl)=NCc1nnc(C)n1-2 [compound 43]	33.3 µM
Cc1nnc2n1-c1sc3c(c1C(c1ccccc1Cl)=NC2)CCOC3 [compound 44]	< 5 µM
Cc1nnc2n1-c1sc3c(c1C(c1ccccc1Cl)=NC2)CCNC3 [compound 45]	< 10 µM
Cc1nnc2n1-c1sc(C[S+](C)[O-])cc1C(c1ccccc1Cl)=NC2 (stereo not drawn) [compound 46]	< 10 µM
Cc1nnc2n1-c1sc(CS(C)(=O)=O)cc1C(c1ccccc1Cl)=NC2 [compound 47]	< 10 µM
Cc1cc2c(cc1C)-n1c(C)cnc1CN=C2c1ccccc1Cl [compound 48]	528 µM

Compound	IC50
CCOC(=O)c1ncn2c1CN=C(c1ccccc1Cl)c1ccsc1-2 [compound 49]	210 µM
Clc1ccccc1C1=NCc2cncn2-c2sccc21 [compound 50]	87 µM
CCOC(=O)c1ncn2c1CN=C(c1ccccc1Cl)c1cc(Br)sc1-2 [compound 52]	134 µM
Clc1ccccc1C1=NCc2cncn2-c2sc(Br)cc21 [compound 53]	97.4 µM
Clc1ccc2c(c1)C(c1ccccc1Cl)=NCc1nncn1-2 [compound 54]	115 µM
Clc1ccc2c(c1)C(c1ccccc1)=NCc1nnc(Br)n1-2 [compound 55]	119 µM
COc1nnc2n1-c1ccc(Cl)cc1C(c1ccccc1Cl)=NC2 [compound 56]	20.6 µM
Clc1ccc2c(c1)C(c1ccccc1Cl)=NCc1nnc(Br)n1-2 [compound 57]	25 µM
Cc1nnc2n1-c1sc(C#N)cc1C(c1ccccc1Cl)=NC2 [compound 58]	3.8 µM
CC(=CC(=O)O)c1cc2c(s1)-n1c(C)nnc1CN=C2c1ccccc1Cl [compound 59]	> 50 µM
CCOC(=O)c1ccn2c1CN=C(c1ccccc1Cl)c1cc(Cl)ccc1-2 [compound 60]	444 µM
Clc1ccc2c(c1)C(c1ccccc1Cl)=NCc1cncn1-2 [compound 61]	246 µM
Cc1nnc2n1-c1ccc([N+](=O)[O-])cc1C(c1ccccc1Cl)=NC2 [compound 62]	10 µM
Clc1ccc2c(c1)C(c1ccccc1Cl)=NCc1nnc(C3CC3)n1-2 [compound 63]	7 µM
Cc1nnc2n1-c1cccc(Cl)c1C(c1ccccc1Cl)=NC2 [compound 64]	280 µM
Cc1cc2c(cc1C)-n1c(C)nnc1CN=C2c1ccccc1Cl [compound 65]	217 µM
Cc1nnc2n1-c1sc(C(=O)O)cc1C(c1ccccc1Cl)=NC2 [compound 67]	> 100 µM
CC(=O)c1cc2c(s1)-n1c(C)nnc1CN=C2c1ccccc1Cl [compound 68]	< 10 µM
Fc1ccccc1C1=NCc2cncn2-c2ccc(Cl)cc21 [compound 69]	580 µM
CCOC(=O)c1ncc2n1-c1ccc(Cl)cc1C(c1ccccc1F)=NC2 [compound 70]	730 µM
Cc1nnc2n1-c1c(Cl)cccc1C(c1ccccc1Cl)=NC2 [compound 71]	300 µM
Cc1nnc2n1-c1cc(F)ccc1C(c1ccccc1Cl)=NC2 [compound 72]	56 µM
Cc1ccc2c(c1)-n1c(C)nnc1CN=C2c1ccccc1Cl [compound 73]	243 µM
Cc1nnc2n1-c1ccc(C#N)cc1C(c1ccccc1Cl)=NC2 [compound 75]	< 20 µM
Cc1nnc2n1-c1sc(CC(=O)O)cc1C(c1ccccc1Cl)=NC2 [compound 76]	> 100 µM
Cc1nnc2n1-c1sc(C(C)O)cc1C(c1ccccc1Cl)=NC2 (stereo not drawn) [compound 77]	< 10 µM

Compound	IC50
COC(=O)c1ccc2c(c1)C(c1ccccc1)=NCc1ncc(C)n1-2 [compound 78]	8 µM
CCOC(=O)c1ccc2c(c1)-n1c(C)nnc1CN=C2c1ccccc1 [compound 79]	38 µM
CC(C)(O)c1ccc2c(c1)C(c1ccccc1)=NCc1nncn1-2 [compound 81]	103 µM
CC(=O)c1ccc2c(c1)C(c1ccccc1)=NCc1nnc(C)n1-2 [compound 82]	63 µM
CCOC(=O)C=C(C)c1cc2c(s1)-n1c(C)nnc1CN=C2c1ccccc1Cl [compound 83]	< 50 µM
Cc1nnc2n1-c1ccccc1C(c1ccccc1Cl)NC2 (stereo not drawn) [compound 85]	8.7 µM
Cc1nnc2n1-c1ccc(Cl)cc1C(c1ccccc1Cl)NC2 (stereo not drawn) [compound 86]	8.3 µM
Cc1nnc2n1-c1cc(Cl)ccc1C(c1ccccc1Cl)NC2 (stereo not drawn) [compound 87]	190 µM
Cc1nnc2n1-c1sc(Cl)cc1C(c1ccccc1Cl)NC2 (stereo not drawn) [compound 88]	< 5 µM
Cc1nnc2n1-c1sc(Br)cc1C(c1ccccc1Cl)NC2 (stereo not drawn) [compound 89]	< 10 µM
CCc1cc2c(s1)-n1c(C)nnc1CNC2c1ccccc1Cl (stereo not drawn) [compound 90]	< 5 µM
Cc1nnc2n1-c1sc(Br)cc1C(c1ccccc1Br)NC2 (stereo not drawn) [compound 91]	< 5 µM
Clc1ccccc1C1NCc2nncn2-c2sc(Br)cc21 (stereo not drawn) [compound 92]	140 µM
NCc1nnc2n1-c1sc(Br)cc1C(c1ccccc1Cl)NC2 (stereo not drawn) [compound 93]	< 50 µM
Cc1nnc2n1-c1sc(Br)cc1C(c1ccccc1Cl)N(CCO)C2 (stereo not drawn) [compound 94]	11 µM
Cc1nnc2n1-c1sc(Br)cc1C(c1ccccc1Cl)N(C)C2 (stereo not drawn) [compound 95]	7.4 µM
CN(C)CCc1nnc2n1-c1sc(Br)cc1C(c1ccccc1Cl)N(C)C2 (stereo not drawn) [compound 96]	26 µM
CCC1NC(c2ccccc2Cl)c2cc(Br)sc2-n2c(C)nnc21 (stereo not drawn) [compound 97]	< 100 µM
Cc1ccccc1C1NCc2nnc(C)n2-c2ccccc21 (stereo not drawn) [compound 98]	63 µM
COc1ccccc1C1NCc2nnc(C)n2-c2ccccc21 (stereo not drawn) [compound 99]	218 µM
COc1ccc2c(c1)C(c1ccccc1Cl)NCc1nnc(C)n1-2 (stereo not drawn) [compound 100]	< 50 µM
Cc1cc2c(cc1C)-n1c(C)nnc1CNC2c1ccccc1Cl (stereo not drawn) [compound 101]	342 µM
Cc1ccc2c(c1)C(c1ccccc1Cl)NCc1nnc(C)n1-2 (stereo not drawn) [compound 102]	< 5 µM
Cc1ccc2c(c1)C(c1ccccc1Cl)N(C)Cc1nnc(C)n1-2 (stereo not drawn) [compound 104]	81 µM
Cc1ccc2c(c1)-n1c(C)nnc1CNC2c1ccccc1Cl (stereo not drawn) [compound 105]	277 µM

Same assay, conditions: table 3 (formula with R7), human thrombocyte-rich plasma, aggregation induced with PAF 5×10^-8 M, read-out: PAF-Antag. IC50

Compound	IC50
CCOC(=O)c1nc(C)n2c1CNC(c1ccccc1Cl)c1cc(Cl)ccc1-2 (stereo not drawn) [compound 103]	519 µM
